Structures can show the parent of a compound that is named as a salt.
Tests used:
[1] = system: parental wild-type Ba/F3 cells; assay: Ba/F3 (WT) cell proliferation assay (Alamar Blue); format: cell-based; settings: Mus musculus; for IC50: BaF3, 72 hours, Alamar Blue, read-out: BaF3 WT prolif
[2] = system: LP-1 cell line (FGF-1/Heparin induced pERK); assay: Cell-based pERK ELISA, LP-1 cells; settings: Homo sapiens; for IC50: LP-1, read-out: LP-1 pERK ELISA (μM)
[3] = BaF3, read-out: BaF3 WT prolif, % inhibition
[4] = LP-1, read-out: LP-1 pERK ELISA, % inhibition

Question: Which results are given for CCNC(=O)Nc1cccc(-c2cnc3cc(-c4ncccn4)ccn23)c1 [Compound 280]?
Answer: inhibition at 3 µM [1, 3]: 74%; IC50 [2]: 0.35 µM

Question: COCCc1nnc(-c2ccn3c(-c4cccc(NC(=O)NCC(F)(F)F)c4)cnc3c2)s1 [Compound 319] was tested. Which IC50 [1] did it give?
Answer: 150 nM

Question: And the IC50 [2]?
Answer: 0.012 µM

Question: How did the inhibition at 10 µM [1, 3] turn out when Cn1cncc1C#Cc1ccn2c(-c3cc(NC(=O)NCC(F)(F)F)ccc3F)cnc2c1 [Compound 327] was run?
Answer: 30%

Question: And the IC50 [2]?
Answer: 0.31 µM

Question: Cn1cncc1C#Cc1ccn2c(-c3cccc(NC(=O)NC4CC4)c3)cnc2c1 [Compound 329] was tested. Which inhibition at 10 µM [1, 3] did it give?
Answer: 31%

Question: What about the IC50 [2] of the same compound?
Answer: 0.23 µM

Question: What does the source list for COc1ccnc(-c2ccn3c(-c4cccc(NC(=O)NCC(F)(F)F)c4)cnc3c2)n1 [Compound 336]?
Answer: IC50 [1]: 460 nM; IC50 [2]: 0.074 µM

Question: Which results are given for NC(=O)Nc1cccc(-c2cnc3cc(-c4ncccn4)ccn23)c1 [Compound 337]?
Answer: inhibition at 10 µM [1, 3]: 23%; IC50 [2]: 1.5 µM

Question: With O=C(NCC(F)(F)F)Nc1cccc(-c2cnc3cc(C#Cc4cccnc4)ccn23)c1 [Example 11, 1-[3-(7-Pyridin-3-ylethynylimidazo[1,2-a]pyridin-3-yl)phenyl]-3-(2,2,2-trifluoroethyl)urea] as the compound, how does the IC50 [2] read?
Answer: 0.032 µM

Question: For O=C(NCC(F)(F)F)Nc1cncc(-c2cnc3cc(-c4cccnn4)ccn23)c1 [Example 20, 1-[5-(7-Pyridazin-3-ylimidazo[1,2-a]pyridin-3-yl)pyridin-3-yl]-3-(2,2,2-trifluoroethyl)urea], which IC50 [2] is on record?
Answer: 1.1 µM

Question: Cc1cc(=O)n2nc(-c3ccn4c(-c5cccc(NC(=O)NCC(F)(F)F)c5)cnc4c3)sc2n1 [Example 27, 1-{3-[7-(7-Methyl-5-oxo-5H-[1,3,4]thiadiazolo[3,2-a]pyrimidin-2-yl)imidazo[1,2-a]pyridin-3-yl]phenyl}-3-(2,2,2-trifluoroethyl)urea] was tested. Which IC50 [2] did it give?
Answer: 0.52 µM

Question: Cn1cc(-c2ccn3c(-c4cccc(NC(=O)NCC(F)(F)F)c4)cnc3c2)c(CN)n1 [Example 57, 1-{3-[7-(3-Aminomethyl-1-methyl-1H-pyrazol-4-yl)-imidazo[1,2-a]pyridin-3-yl]-phenyl}-3-(2,2,2-trifluoro-ethyl)-urea] was tested. Which inhibition at 3 µM [2, 4] did it give?
Answer: 40%

Question: For O=C(NCC(F)(F)F)Nc1cccc(-c2cnc3cc(-c4ccc(N5CCC5)nn4)ccn23)c1 [Example 82, 1-{3-[7-(6-Azetidin-1-yl-pyridazin-3-yl)-imidazo[1,2-a]pyridin-3-yl]-phenyl}-3-(2,2,2-trifluoro-ethyl)-urea hydrochloride], which IC50 [2] is on record?
Answer: 0.0067 µM

Question: Which IC50 [2] does the source give for O=C(NCC(F)(F)F)Nc1cccc(-c2cnc3cc(-c4ccncc4)ccn23)c1 [Example 83, 1-[3-(7-Pyridin-4-yl-imidazo[1,2-a]pyridin-3-yl)-phenyl]-3-(2,2,2-trifluoro-ethyl)-urea] here?
Answer: 0.012 µM

Question: Which inhibition at 10 µM [2, 4] does the source give for Nc1ccn2c(-c3cccc(NC(=O)NCC(F)(F)F)c3)cnc2c1 [Example 115, 1-[3-(7-Aminoimidazol[1,2-a]pyridin-3-yl)phenyl]-3-(2,2,2-trifluoroethyl)urea] here?
Answer: 0%

Question: Which IC50 [2] does the source give for Cc1nccn1-c1ccn2c(-c3cccc(NC(=O)NCC(F)(F)F)c3)cnc2c1 [Example 116, 1-{3-[7-(2-Methylimidazol-1-yl)-1,7-dihydroimidazol[1,2-a]pyridin-3-yl]-phenyl}-3-(2,2,2-trifluoroethyl)urea] here?
Answer: 1.9 µM

Question: How did the inhibition at 10 µM [1, 3] turn out when CCOc1cnc(-c2ccn3c(-c4cccc(NC(=O)NCC(F)(F)F)c4)cnc3c2)nc1 [Example 240] was run?
Answer: 17%

Question: With O=C(NCC(F)(F)F)Nc1cccc(-c2cnc3cc(-c4nnc(CCN5CCCC5)s4)ccn23)c1 [Example 241] as the compound, how does the inhibition at 10 µM [1, 3] read?
Answer: 4.2%

Question: For CC(C)c1cnc(N)nc1-c1ccn2c(-c3cccc(NC(=O)NCC(F)(F)F)c3)cnc2c1 [Example 242], which IC50 [1] is on record?
Answer: 1700 nM

Question: With O=C(NCC(F)(F)F)Nc1cccc(-c2cnc3cc(-c4ncc(C(F)(F)F)cn4)ccn23)c1 [Example 244] as the compound, how does the inhibition at 3 µM [1, 3] read?
Answer: 17%

Question: How did the inhibition at 1 µM [1, 3] turn out when Cc1cn2nc(-c3ccn4c(-c5cc(NC(=O)NCC(F)(F)F)cc(OC(C)C)c5)cnc4c3)sc2n1 [Example 247] was run?
Answer: 36%

From patent US8796244B2, “Imidazopyridine derivatives as inhibitors of receptor tyrosine kinases” (Astex Therapeutics Ltd, priority 2008, dated 2014)
